Results as given in ChEMBL document CHEMBL1201862, “PubChem BioAssay data set” (2004).
The source made the active and inactive calls.

What was measured:
[1] = target: T1, Small ubiquitin-related modifier 2 (Homo sapiens, UniProt P61956); experiment: disruption of SUMO2 interaction with SIM peptide – biochemical, fluorescence polarization, uHTS hits, selectivity assay for SUMO1 interaction inhibitor project, dose response (AID 624385); type: functional; details: read-out: IC50_Mean
[2] = target: T2, Streptokinase A (Streptococcus pyogenes serotype M1, UniProt P10520); experiment: viability-normalized secreted streptokinase activity reduction – plasminogen activation absorbance, OD405, dose response (AID 1914); type: functional, Streptococcus pyogenes M1 GAS;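 note: secreted streptokinase activity via plasminogen activation per viability signal from cell pellet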
T2 sequence (P10520 whole entry): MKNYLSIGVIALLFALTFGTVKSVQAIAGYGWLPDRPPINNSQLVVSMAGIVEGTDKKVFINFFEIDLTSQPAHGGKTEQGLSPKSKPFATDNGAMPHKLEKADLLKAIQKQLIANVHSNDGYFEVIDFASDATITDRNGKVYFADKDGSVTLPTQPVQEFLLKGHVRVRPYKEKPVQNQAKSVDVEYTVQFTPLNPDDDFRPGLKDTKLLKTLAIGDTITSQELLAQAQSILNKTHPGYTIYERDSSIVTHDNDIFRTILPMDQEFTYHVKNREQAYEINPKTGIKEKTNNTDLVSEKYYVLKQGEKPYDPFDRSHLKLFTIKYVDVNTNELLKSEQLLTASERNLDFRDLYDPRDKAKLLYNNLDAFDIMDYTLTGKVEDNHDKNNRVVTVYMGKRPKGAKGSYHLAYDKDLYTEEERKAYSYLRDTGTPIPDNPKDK

[3] = test system: Streptococcus sp. 'group A'; experiment: Streptococcus pyogenes SK(-)GAS viability under kanamycin – luminescence, BacTiterGlo, confirmation, counter-screen for streptokinase expression inhibitor project, dose response (AID 1900); type: functional, organism-based
[4] = target: T3, Dual specificity protein phosphatase 3 (Homo sapiens, UniProt P51452); experiment: VHR1 phosphatase inhibitors, primary screen, biochemical, absorbance, uHTS (AID 1654)
T3 sequence (P51452 whole entry): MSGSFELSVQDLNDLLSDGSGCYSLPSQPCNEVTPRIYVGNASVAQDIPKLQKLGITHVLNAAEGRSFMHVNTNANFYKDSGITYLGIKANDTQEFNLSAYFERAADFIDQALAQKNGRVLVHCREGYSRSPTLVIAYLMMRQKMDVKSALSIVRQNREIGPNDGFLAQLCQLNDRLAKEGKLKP

[5] = target: T4, Dual specificity protein phosphatase 6 (Rattus norvegicus, UniProt Q64346); experiment: inhibition of rat DUSP6 enzyme activity – biochemical, in vitro, primary screen (AID 425)
T4 sequence (Q64346 whole entry): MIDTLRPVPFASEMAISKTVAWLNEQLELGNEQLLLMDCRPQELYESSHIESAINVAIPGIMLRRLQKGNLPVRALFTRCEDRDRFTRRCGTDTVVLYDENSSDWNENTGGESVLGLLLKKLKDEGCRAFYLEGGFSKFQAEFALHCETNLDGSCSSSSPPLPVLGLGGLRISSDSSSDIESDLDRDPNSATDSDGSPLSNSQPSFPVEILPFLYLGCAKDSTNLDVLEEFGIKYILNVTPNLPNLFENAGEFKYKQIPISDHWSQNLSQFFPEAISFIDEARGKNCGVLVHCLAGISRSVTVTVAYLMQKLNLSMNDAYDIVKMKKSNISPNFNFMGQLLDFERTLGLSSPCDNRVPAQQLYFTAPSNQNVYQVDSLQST

[6] = target: T3, Dual specificity protein phosphatase 3; experiment: VHR1 phosphatase inhibitors, biochemical (AID 1878)
[7] = target: Genome polyprotein (dengue virus type 2, UniProt P29990); experiment: flavivirus cap methylation enzyme inhibition – biochemical, confirmation dose response, primary screen (AID 588689); type: functional
Sequence of Genome polyprotein (P29990 2492-3391 limits assumed): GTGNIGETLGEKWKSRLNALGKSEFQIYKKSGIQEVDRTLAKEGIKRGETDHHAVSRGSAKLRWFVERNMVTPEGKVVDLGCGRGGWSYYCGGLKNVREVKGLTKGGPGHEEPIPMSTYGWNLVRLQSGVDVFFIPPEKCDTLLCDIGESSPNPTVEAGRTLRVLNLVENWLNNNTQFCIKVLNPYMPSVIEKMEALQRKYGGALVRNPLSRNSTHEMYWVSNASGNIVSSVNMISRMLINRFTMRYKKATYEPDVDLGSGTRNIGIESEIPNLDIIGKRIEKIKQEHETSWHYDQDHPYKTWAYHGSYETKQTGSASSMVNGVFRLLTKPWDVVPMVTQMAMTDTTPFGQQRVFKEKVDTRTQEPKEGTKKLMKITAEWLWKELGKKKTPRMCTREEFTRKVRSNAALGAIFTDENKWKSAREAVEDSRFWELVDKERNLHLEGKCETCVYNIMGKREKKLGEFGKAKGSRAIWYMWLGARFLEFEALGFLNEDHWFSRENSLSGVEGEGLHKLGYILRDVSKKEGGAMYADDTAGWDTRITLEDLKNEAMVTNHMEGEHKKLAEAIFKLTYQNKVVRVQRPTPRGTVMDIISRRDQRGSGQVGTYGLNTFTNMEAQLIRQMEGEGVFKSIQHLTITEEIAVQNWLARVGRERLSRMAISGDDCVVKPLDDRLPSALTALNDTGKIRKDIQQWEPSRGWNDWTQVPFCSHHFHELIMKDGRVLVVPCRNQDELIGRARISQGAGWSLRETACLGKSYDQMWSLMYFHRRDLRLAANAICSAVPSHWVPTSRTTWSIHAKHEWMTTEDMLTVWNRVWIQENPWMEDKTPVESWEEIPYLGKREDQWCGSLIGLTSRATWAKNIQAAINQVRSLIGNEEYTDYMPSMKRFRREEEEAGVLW

[8] = target: T5, Small ubiquitin-related modifier 1 (Homo sapiens, UniProt P63165); experiment: SUMO1 protein-protein binding blockers, potency – biochemical, FRET, dose response (AID 624383); type: functional; details: read-out: IC50_Mean
T5 sequence (P63165 whole entry): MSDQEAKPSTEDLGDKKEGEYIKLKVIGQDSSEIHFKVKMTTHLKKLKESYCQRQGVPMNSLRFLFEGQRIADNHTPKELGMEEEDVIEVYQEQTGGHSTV

[9] = target: T6, Calpain-2 catalytic subunit (Sus scrofa, UniProt P43367); experiment: m-calpain protease blockers, concentration series – biochemical, fluorogenic peptide substrate, dose response (AID 1420); type: functional
T6 sequence (P43367 whole entry): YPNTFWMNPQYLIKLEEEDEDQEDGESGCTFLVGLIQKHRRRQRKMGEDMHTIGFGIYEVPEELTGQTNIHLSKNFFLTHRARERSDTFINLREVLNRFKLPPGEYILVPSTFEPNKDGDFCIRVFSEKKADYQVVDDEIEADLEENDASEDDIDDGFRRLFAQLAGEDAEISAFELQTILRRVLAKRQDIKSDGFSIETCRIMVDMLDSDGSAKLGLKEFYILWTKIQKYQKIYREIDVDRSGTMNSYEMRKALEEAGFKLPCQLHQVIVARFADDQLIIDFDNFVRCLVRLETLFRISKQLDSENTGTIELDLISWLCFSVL

[10] = target: T5, Small ubiquitin-related modifier 1; experiment: SUMO1 protein interaction blockers, potency – biochemical, fluorescence polarization, uHTS hits, dose response (AID 624382); type: functional; details: read-out: IC50_Mean
[11] = target: T1, Small ubiquitin-related modifier 2; experiment: SUMO2 binding disruption by SUMO1 hits – biochemical, FRET, human SUMO2, uHTS hits, selectivity assay for SUMO1 interaction inhibitor project, dose response (AID 624384); type: functional; details: read-out: IC50_Mean
[12] = test system: Streptococcus; experiment: GAS UMAA2166 growth inhibition – luminescence, BacTiterGlo, counter-screen for streptokinase expression inhibitor project, dose response (AID 1915); type: functional, organism-based;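 note: potency for reduction of bacterial viability or growth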
[13] = target: Cytochrome P450 2C9 (Homo sapiens, UniProt P11712)
Sequence of Cytochrome P450 2C9 (P11712 whole entry): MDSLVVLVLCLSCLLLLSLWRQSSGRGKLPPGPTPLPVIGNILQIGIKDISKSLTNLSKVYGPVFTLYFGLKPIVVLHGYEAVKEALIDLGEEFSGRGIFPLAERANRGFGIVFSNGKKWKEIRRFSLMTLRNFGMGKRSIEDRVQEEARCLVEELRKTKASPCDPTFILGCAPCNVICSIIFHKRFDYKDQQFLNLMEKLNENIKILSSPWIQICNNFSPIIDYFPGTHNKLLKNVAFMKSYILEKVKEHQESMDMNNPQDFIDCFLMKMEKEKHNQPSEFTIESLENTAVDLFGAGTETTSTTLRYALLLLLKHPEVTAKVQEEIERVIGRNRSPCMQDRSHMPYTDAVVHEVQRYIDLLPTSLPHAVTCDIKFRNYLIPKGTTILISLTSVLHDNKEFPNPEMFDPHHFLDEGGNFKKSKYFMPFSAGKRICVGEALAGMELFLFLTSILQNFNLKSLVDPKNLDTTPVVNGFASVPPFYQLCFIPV

[14] = target: Cytochrome P450 2D6 (Homo sapiens, UniProt P10635);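 note: CYP2D6 member of a cytochrome P450 panel assay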
Sequence of Cytochrome P450 2D6 (P10635 whole entry): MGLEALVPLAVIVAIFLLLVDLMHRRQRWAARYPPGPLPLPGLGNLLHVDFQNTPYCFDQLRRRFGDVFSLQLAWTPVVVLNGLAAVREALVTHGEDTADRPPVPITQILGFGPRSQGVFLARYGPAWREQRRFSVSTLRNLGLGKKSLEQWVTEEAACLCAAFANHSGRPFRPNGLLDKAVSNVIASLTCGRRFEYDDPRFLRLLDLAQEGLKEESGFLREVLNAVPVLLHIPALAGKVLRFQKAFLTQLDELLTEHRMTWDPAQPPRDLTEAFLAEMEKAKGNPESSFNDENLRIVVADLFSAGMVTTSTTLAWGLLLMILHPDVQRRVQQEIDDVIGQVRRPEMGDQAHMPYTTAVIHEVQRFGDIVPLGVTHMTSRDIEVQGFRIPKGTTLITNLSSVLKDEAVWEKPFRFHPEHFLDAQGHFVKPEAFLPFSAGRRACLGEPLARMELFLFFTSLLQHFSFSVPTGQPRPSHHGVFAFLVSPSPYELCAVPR

[15] = target: Lysine-specific demethylase 4C (Homo sapiens, UniProt Q9H3R0); experiment: inhibition of JMJD2C H3K9me3 demethylation – biochemical, DELFIA europium, cherry-picked samples, dose response (AID 488835); type: functional
Sequence of Lysine-specific demethylase 4C (Q9H3R0 whole entry): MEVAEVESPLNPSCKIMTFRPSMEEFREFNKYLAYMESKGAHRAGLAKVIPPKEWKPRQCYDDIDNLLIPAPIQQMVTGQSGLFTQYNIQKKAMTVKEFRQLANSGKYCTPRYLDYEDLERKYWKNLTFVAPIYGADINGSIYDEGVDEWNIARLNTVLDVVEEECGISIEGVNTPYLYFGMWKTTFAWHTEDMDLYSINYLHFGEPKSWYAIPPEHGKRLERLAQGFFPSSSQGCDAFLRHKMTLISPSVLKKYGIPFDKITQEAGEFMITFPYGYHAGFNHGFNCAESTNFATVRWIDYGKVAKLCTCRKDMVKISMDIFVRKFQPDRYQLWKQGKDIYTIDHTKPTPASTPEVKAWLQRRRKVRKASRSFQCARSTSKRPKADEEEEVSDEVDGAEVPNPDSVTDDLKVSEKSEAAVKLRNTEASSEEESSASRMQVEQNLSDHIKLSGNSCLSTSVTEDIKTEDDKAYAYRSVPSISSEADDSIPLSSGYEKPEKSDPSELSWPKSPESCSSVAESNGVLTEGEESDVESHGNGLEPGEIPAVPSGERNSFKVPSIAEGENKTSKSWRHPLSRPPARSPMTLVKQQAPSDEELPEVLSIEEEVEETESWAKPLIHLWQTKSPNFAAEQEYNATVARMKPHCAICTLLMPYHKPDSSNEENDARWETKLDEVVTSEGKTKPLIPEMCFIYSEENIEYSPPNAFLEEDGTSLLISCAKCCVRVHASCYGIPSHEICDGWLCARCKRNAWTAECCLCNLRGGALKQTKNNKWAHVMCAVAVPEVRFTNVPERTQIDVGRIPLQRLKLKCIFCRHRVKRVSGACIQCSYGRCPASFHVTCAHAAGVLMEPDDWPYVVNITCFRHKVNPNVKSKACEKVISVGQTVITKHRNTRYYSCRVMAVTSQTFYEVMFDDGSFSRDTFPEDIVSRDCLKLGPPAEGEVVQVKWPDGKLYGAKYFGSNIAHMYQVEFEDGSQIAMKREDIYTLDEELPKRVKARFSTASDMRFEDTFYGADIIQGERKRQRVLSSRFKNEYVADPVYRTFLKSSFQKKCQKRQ

[16] = target: Lysine-specific demethylase 4A (Homo sapiens, UniProt O75164); experiment: inhibition of JMJD2A H3K9me3 demethylation – biochemical, DELFIA europium, cherry-picked samples, selectivity assay for GASC-1 inhibitor project, dose response (AID 488840)
Sequence of Lysine-specific demethylase 4A (O75164 whole entry): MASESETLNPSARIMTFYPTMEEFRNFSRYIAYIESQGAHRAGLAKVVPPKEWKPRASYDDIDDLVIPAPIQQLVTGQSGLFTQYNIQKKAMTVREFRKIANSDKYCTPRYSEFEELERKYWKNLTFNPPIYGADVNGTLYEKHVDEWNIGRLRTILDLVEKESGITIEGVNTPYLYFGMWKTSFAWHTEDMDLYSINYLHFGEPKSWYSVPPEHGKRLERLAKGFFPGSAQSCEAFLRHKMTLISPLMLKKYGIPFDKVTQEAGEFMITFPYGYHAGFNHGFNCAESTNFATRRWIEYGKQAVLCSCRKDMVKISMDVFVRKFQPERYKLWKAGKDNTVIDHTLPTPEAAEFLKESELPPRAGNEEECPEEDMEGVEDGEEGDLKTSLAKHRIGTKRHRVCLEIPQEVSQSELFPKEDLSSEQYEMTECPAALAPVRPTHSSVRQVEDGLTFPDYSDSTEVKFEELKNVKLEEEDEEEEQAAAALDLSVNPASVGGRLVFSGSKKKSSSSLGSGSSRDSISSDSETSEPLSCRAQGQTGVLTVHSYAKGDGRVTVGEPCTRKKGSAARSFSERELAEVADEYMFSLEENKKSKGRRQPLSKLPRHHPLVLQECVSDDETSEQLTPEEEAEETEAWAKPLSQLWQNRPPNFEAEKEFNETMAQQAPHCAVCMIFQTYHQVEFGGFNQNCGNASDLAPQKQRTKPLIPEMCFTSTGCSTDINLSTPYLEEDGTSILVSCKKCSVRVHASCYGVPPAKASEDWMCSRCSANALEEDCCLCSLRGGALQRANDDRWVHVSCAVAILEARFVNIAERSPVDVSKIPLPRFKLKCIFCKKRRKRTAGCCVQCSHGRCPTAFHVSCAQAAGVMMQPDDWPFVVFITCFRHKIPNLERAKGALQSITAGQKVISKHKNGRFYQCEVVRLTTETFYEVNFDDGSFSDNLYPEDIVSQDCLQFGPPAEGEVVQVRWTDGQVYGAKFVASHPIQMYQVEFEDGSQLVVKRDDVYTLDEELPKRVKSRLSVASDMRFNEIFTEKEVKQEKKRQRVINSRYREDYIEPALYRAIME

[17] = target: T7, Mannose-6-phosphate isomerase (Homo sapiens, UniProt P34949); experiment: MPI inhibition at elevated mannose 6-phosphate – biochemical, fluorescence intensity, high mannose 6-phosphate, primary screen (AID 1220)
T7 sequence (P34949 whole entry): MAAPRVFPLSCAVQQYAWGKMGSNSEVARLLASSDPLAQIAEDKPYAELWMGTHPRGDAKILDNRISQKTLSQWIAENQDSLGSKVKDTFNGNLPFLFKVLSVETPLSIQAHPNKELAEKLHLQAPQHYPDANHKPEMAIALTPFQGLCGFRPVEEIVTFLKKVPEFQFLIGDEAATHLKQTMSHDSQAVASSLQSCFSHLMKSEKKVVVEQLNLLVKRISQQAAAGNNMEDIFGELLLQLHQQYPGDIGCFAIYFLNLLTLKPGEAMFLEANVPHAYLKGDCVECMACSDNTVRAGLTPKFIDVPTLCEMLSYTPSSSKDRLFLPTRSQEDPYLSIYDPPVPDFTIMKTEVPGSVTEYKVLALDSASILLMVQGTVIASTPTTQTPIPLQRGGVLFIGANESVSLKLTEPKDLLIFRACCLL

T1 sequence (P61956 whole entry): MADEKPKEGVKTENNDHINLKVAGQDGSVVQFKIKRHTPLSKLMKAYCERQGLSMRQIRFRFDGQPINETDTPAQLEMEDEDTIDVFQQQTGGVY

CSc1nc(SCC(=O)O)c2sc3nc(-c4ccccc4)c4c(c3c2n1)CCC4
IC50 [1]: 5.38 µM (active)
EC50 [2]: 7.33 µM (active)
EC50 [3]: 1.41 µM (active)
IC50 [4]: 5.06 µM (active)
IC50 [5]: 96.5 µM (active)
IC50 [6]: 3.72 µM (active)
IC50 [7]: 48.9 µM (active)
IC50 [8]: 5.16 µM (active)
IC50 [9]: 3.74 µM (not active)
IC50 [10]: 2.06 µM (active)
IC50 [11]: 5.26 µM (active)
EC50 [12]: 6.54 µM (active)

O=[N+]([O-])c1ccc(N2CCOCC2)nc1
AC50 [13]: 7.94 µM (inconclusive)
AC50 [14]: inconclusive

CCOC(=O)C1=C(C)NC(=O)NC1c1c(C)nn(-c2ccccc2)c1Cl (configuration not stated)
AC50 [15]: 1.22 µM (active)
AC50 [16]: 8.63 µM (active)
IC50 [17]: 5.4 µM (active)
